Experimental data taken from patent US20210403415A1, “COMPOUNDS AND METHODS TO ATTENUATE TUMOR PROGRESSION AND METASTASIS” (THE TRUSTEES OF INDIANA UNIVERSITY, priority 2018, published 2021).
Entries after “also recorded” stand apart in the source; their conditions may differ.

Experiments:
TEAD4 Cys367Ser mutant = molecular target: T1, TEAD4 Cys367Ser mutant (Homo sapiens, UniProt Q15561, C367S); test: Fluorescence polarization, GST-TEAD4 Cys367Ser mutant with FAM-Yap60-99 peptide; assay type: binding; conditions: 24 h at 4° C.
T1 construct: TEAD4 (217-434) Cys367Ser mutant and Yap1 (Full-length) were expressed as GST-fusion proteins; made in house; host or cells: E. coli BL-21 (DE3), pGEX-6P-1
T1 sequence (Q15561 217-434 C367S): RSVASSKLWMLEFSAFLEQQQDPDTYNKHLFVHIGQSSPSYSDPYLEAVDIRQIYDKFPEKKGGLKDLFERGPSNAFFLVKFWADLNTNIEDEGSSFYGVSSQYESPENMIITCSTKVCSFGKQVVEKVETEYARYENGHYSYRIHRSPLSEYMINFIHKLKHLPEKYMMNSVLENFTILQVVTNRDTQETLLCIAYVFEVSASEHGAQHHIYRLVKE
Description: GST-TEAD4, GST-TEAD4 Cys367Ser mutant or HIS-TEAD2 interaction with Yap1 was investigated using a fluorescently-labeled peptide (FAM-Yap60-99), consisting of FAM-labeled TEAD-binding peptide fragment of Yap1 (FAM-[…] TVPMCLRKLPASFCKPP), which has a disulfide bridge (American Peptide, Sunnyvale, Calif.). Addition of FAM-Yap60-99 to the TEAD was followed by measurement of changes in polarization. 40 μL of 125 nM GST-TEAD4 WT or GST-TEAD4 Cys367Ser in assay buffer (PBS with 0.01% v/v Triton-X100) or 40 μL of 64 nM HIS-TEAD2 was added to a 384-well black polystyrene plate (Cat. No. 262260; Nunc, Roskilde, Denmark) and incubated with 5 μL of […] serially diluted compounds in assay buffer supplemented with 20% v/v DMSO for 24 h at 4° C. Finally, 5 μL of 160 nM FAM-Yap60-99 peptide was added, the plate centrifuged, and the polarization was measured on an Envision Multilabel Plate Reader (PerkinElmer, Waltham, Mass.) using a filter set with excitation and emission wavelengths of 485 and 535 nm, respectively. Percent inhibition was calculated as relative to a minimum inhibition control, which is without compound, and a maximum inhibition control, which is without a TEAD.

[1] = tested on: patient-derived GBM43 glioblastoma spheroids; test: GBM43 spheroid viability (Alamar blue); assay type: cell-based, human; conditions: for cytotoxicity at 10 µM: Homo sapiens, GBM43 cell, read-out: inhibition of GBM43 cell viability; for effect on GBM43 cancer cell viability / growth: three-dimensional spheroids
Description: Early-passage GBM43 cells were cultured in ultralow adherence plates (Corning Inc.) at 1 to 2×10^3 cells/mL in DMEM supplemented with 1% […] (Invitrogen), 2% B27 (Invitrogen), 25 ng/mL epidermal growth factor (EGF, 25 ng/mL fibroblast growth factor (FGF) (R&D Systems, Inc.), […], 2 ng/mL platelet growth factor, and 100 ng/mL each of penicillin and streptomycin (Invitrogen Inc.). Individual cells were recovered from spheres by incubation with Accutase (Sigma-Aldrich) for 10-15 minutes. Cells (50-100/well) were then seeded in fresh sphere-forming media in 96-well plates. After 2-3 days, Neurospheres containing 6 to 8 cells were treated with compounds 1, 2, and 5.
HEK-293 were cultured in DMEM with glutamine (Cellgro, Manassas, Va.) supplemented with 10% FBS and 1% penicillin/streptomycin in a 5% CO2 atmosphere at 37° C. Tumors were expanded by passage in the flank of NOD/SCIDγnull mice. To generate GBM43 cell lines, tumors were harvested, disaggregated, and maintained in 2.5% FBS for 14 days on Matrigel-coated plates (BD Biosciences) to remove murine fibroblasts. In-vitro GBM43 cell lines were propagated in DMEM with 10% FBS for no more than 7 passages. Cell line identity was confirmed by DNA fingerprint analysis (IDEXX BioResearch) for species and baseline short-tandem repeat analysis testing. GBM43 spheroids were generated by plating early-passage cells at 2.5×10^4 cells per well in 96-well ultralow attachment plates (Corning Inc.) in DMEM/F12 (1:1; GIBCO) supplemented with 2% B27 supplement (GIBCO), 20 ng/mL epidermal growth factor (EGF), and 20 ng/mL fibroblast growth factor (FGF) (Peprotech) for 2 days. The spheroids were then treated with compounds 1, 2, and 5 and growth analyzed by Alamar blue staining.

CTGF transcript levels [2] = test: qRT-PCR of CTGF transcript in GBM43 cells; assay type: cell-based, human; conditions: FIG. 8C
TEAD4 = TEAD4 (Homo sapiens, UniProt Q15561); test: Covalent streptavidin pull down of myc-TEAD4 from HEK293 cell lysates; assay type: cell-based; parameters: expressed in transfected cells; host or cells: HEK293; conditions: higher concentrations, with compound 9
Sequence of TEAD4 (Q15561 whole entry): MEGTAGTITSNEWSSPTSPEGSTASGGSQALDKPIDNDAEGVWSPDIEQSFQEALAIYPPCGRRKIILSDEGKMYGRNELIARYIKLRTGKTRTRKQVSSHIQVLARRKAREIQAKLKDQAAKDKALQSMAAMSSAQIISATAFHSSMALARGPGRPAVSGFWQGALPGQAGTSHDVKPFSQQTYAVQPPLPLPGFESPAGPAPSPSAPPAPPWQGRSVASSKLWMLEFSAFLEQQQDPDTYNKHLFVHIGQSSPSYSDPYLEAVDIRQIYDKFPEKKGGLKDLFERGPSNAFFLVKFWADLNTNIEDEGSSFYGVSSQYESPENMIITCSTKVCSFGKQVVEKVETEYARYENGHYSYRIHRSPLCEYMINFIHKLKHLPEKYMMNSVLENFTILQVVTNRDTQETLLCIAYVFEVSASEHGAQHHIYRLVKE
Description: HEK293 cells transfected with the myc-TEAD4 construct were grown for 48 h and then treated with DMSO or with 25 μM of compound 2 for an additional 48 h. Cells were then harvested in lysis buffer (50 mM Tris-HCl, pH 7.3, 150 mM NaCl, 0.5 mM EDTA, 1% Triton X-100, PhosSTOP phosphatase inhibitor cocktail, and EDTA-free protease inhibitors cocktail). Cell lysates containing 2 mg of protein were incubated with the indicated compounds or DMSO for 24 h. Extracts were then incubated with Dynabeads M-280 Streptavidin (Sigma-Aldrich) for 2 h at 4° C. Dynabeads were then washed and bound proteins were denatured and eluted according to the manufacturer's instructions. Relative levels of myc-TEAD4 from each complex were measured by immunoblot analysis with the anti-c-Myc antibody (1:5,000, Sigma-Aldrich).

CTGF transcript levels [3] = test: qRT-PCR of CTGF transcript in HEK293 cells; assay type: cell-based; conditions: HEK293, 48 h
Description: HEK293 cells co-transfected the Flag-YAP and myc-TEAD4 constructs were incubated with DMSO or the indicated amount of compounds for 48 h. Total RNA was purified using the RNeasy plus mini kit (QIAGEN, Hilden, Germany) according to the manufacturer's instructions. Complementary DNA was synthesized from 500 ng total RNA with Oligo-dT primers and the Multi-Scribe reverse transcriptase (Fisher, Waltham, Mass.) according to the manufacturer's instructions.
Real-time PCR reactions utilized 100 ng cDNA, 200 nM gene specific primers and the Sensifast No-ROX mix (Bioline, Taunton, Mass.) in a total volume of 20 μl. All measurements were carried out in triplicate using an Eppendorf Mastercycler® RealPlex2. The sequences of primers for CTGF were forward, 5′-TTGGCCCAGACCCAACTA-3 (SEQ ID NO: 1); and reverse, 5′-GCAGGAGGCGTTGTCATT-3′ (SEQ ID. NO: 2). The primer sequences for (3-actin were forward, 5′-TTGGCAATGAGCGGTTCC-3 (SEQ ID NO: 3); and reverse, 5′-[…]-3′ (SEQ ID NO: 4).

[4] = tested on: TEAD4 transcriptional activity; test: TEAD4 luciferase reporter assay (CTGF promoter) in HEK-293 cells; assay type: cell-based
Description: HEK-293 cells plated at 2.4×10^4 cells/well in a 96-well microplate were transfected after 24 hours with the a pGL3.1 reporter containing the CTGF promoter and a plasmid encoding TK-Renilla luciferase in combination with control vectors or vectors that express Yap1 and TEAD4. […] Luciferase activity was measured according to the Dual-Glo luciferase assay (Promega) instructions using a Biotek Synergy Neo2 plate reader. Relative luciferase activity represents the ratio of firefly/renilla luminescence values.

Row | Structure (SMILES) | inhibition of TEAD4 Cys367Ser mutant binding to the peptide (TEAD4 Cys367Ser mutant) | cytotoxicity at 10 µM [1] | effect on GBM43 cancer cell viability / growth [1] | CTGF transcript levels versus vehicle (CTGF transcript levels [2]) | competition with compound 9 for binding to TEAD4 (TEAD4) | CTGF transcript levels versus control cells (CTGF transcript levels [3]) | reduction in reporter activity ([4]; 5 μM, 48 h) | reporter activity ([4]; 10 μM, 48 h) | TEAD transcriptional activity ([4]; 24 h)
1 | O=C(CCl)c1ncccc1Nc1cccc(C(F)(F)F)c1 [Compound 5, 2-chloro-1-(3-((3-(trifluoromethyl)phenyl)amino)pyridin-2-yl)ethanone] | also inhibited the TEAD4 Cys367Ser mutant | 30% | inhibited GBM43 cancer cell viability | suppressed CTGF transcript levels | compete with compound 9 for binding to TEAD4 | significant reduction | – | – | –
2 | O=C(CCl)c1ccccc1Nc1cccc(C(F)(F)F)c1 [Compound 2, 2-chloro-1-(2-((3-(trifluoromethyl)phenyl)amino)phenyl)ethanone] | did not inhibit | 30% | inhibited GBM43 cancer cell viability | suppressed CTGF transcript levels | compete with compound 9 for binding to TEAD4 | significant reduction | over 70% | complete loss of reporter activity | Less activity is observed at 24 h; also recorded: inhibits TEAD transcriptional activity in a concentration-dependent manner
